Experimental data from ChEMBL document CHEMBL3124777, “Synthesis and biological evaluation of thiazoline derivatives as new antimicrobial and anticancer agents” (Eur J Med Chem, 2014).
In brackets after ≈: the same amount, converted by molar mass. Activity calls are given as the source filed them. The rule behind the calls is not given here.

Columns and labels:
[1] = system: Pseudomonas aeruginosa; test: Antimicrobial activity against Pseudomonas aeruginosa […] after 18 to 24 hrs by microbroth dilution method; assay type: functional
[2] = system: C6; test: Cytotoxicity against rat C6 cells assessed as cell viability at 6 ug/ml after 24 hrs by MTT assay relative to control; assay type: functional; details: C6, 24 h, read-out: Activity
[3] = system: C6; test: Cytotoxicity against rat C6 cells assessed as cell viability at 100 ug/ml after 24 hrs by MTT assay relative to control; assay type: functional; details: C6, 24 h, read-out: Activity
[4] = system: C6; test: Cytotoxicity against rat C6 cells after 24 hrs by MTT assay; assay type: functional, cell-based; details: C6, 24 h
[5] = system: C6; test: Cytotoxicity against rat C6 cells assessed as cell viability at 50 ug/ml after 24 hrs by MTT assay relative to control; assay type: functional; details: C6, 24 h, read-out: Activity
[6] = system: Listeria monocytogenes; test: Antimicrobial activity against Listeria monocytogenes ATCC 7644 after 18 to 24 hrs by microbroth dilution method; assay type: functional
[7] = system: Aspergillus ochraceus; test: Antimicrobial activity against Aspergillus ochraceus NRRL 3174 after 48 to 72 hrs by microbroth dilution method; assay type: functional
[8] = system: C6; test: Cytotoxicity against rat C6 cells assessed as cell viability at 25 ug/ml after 24 hrs by MTT assay relative to control; assay type: functional; details: C6, 24 h, read-out: Activity
[9] = system: Escherichia coli; test: Antimicrobial activity against Escherichia coli ATCC 25922 after 18 to 24 hrs by microbroth dilution method; assay type: functional
[10] = system: Penicillium chrysogenum; test: Antimicrobial activity against Penicillium chrysogenum NRRL 1951 after 48 to 72 hrs by microbroth dilution method; assay type: functional
[11] = system: C6; test: Inhibition of DNA synthesis in rat C6 cells assessed as BrdU incorporation after 24 hrs by ELISA; assay type: functional, cell-based
[12] = system: Aspergillus parasiticus; test: Antimicrobial activity against Aspergillus parasiticus NRRL 465 after 48 to 72 hrs by microbroth dilution method; assay type: functional
[13] = system: Fusarium verticillioides; test: Antimicrobial activity against Fusarium moniliforme NRRL 1866 after 48 to 72 hrs by microbroth dilution method; assay type: functional
[14] = system: Trichoderma harzianum; test: Antimicrobial activity against Trichoderma harzianum NRRL 20565 after 48 to 72 hrs by microbroth dilution method; assay type: functional
[15] = system: Bacillus subtilis; test: Antimicrobial activity against Bacillus subtilis NRS-744 after 18 to 24 hrs by microbroth dilution method; assay type: functional
[16] = system: Fusarium culmorum; test: Antimicrobial activity against wild type Fusarium culmorum after 48 to 72 hrs by microbroth dilution method; assay type: functional
[17] = system: C6; test: Cytotoxicity against rat C6 cells assessed as cell viability at 200 ug/ml after 24 hrs by MTT assay relative to control; assay type: functional; details: C6, 24 h, read-out: Activity
[18] = system: Fusarium solani; test: Antimicrobial activity against Fusarium solani NRRL 13414 after 48 to 72 hrs by microbroth dilution method; assay type: functional
[19] = system: Micrococcus luteus; test: Antimicrobial activity against Micrococcus luteus NRLL B-4375 after 18 to 24 hrs by microbroth dilution method; assay type: functional
[20] = system: Staphylococcus aureus; test: Antimicrobial activity against Staphylococcus aureus NRRL B-767 after 18 to 24 hrs by microbroth dilution method; assay type: functional
[21] = system: NIH3T3; test: Cytotoxicity against mouse NIH/3T3 cells after 24 hrs by MTT assay; assay type: cell-based; details: NIH3T3, 24 h
[22] = system: C6; test: Inhibition of DNA synthesis in rat C6 cells assessed as BrdU incorporation at IC50 after 24 hrs by ELISA; assay type: functional, cell-based
[23] = system: Candida albicans; test: Antimicrobial activity against Candida albicans ATCC 22019 after 18 to 24 hrs by microbroth dilution method; assay type: functional
[24] = system: C6; test: Cytotoxicity against rat C6 cells assessed as cell viability at 12 ug/ml after 24 hrs by MTT assay relative to control; assay type: functional; details: C6, 24 h, read-out: Activity

SMILES: Cn1nnnc1SCC(=O)N/N=c1/scc(-c2ccc(C#N)cc2)n1-c1ccccc1
- MIC [1]: 250 µg/mL (≈ 557 µM)
- viability at 6 µg/mL [2]: 63.5%
- viability at 100 µg/mL [3]: 30.9%
- IC50 [4]: 23.3 µg/mL (≈ 51.9 µM)
- viability at 50 µg/mL [5]: 35.6%
- MIC [6]: 250 µg/mL (≈ 557 µM)
- MIC [7]: 250 µg/mL (≈ 557 µM)
- viability at 25 µg/mL [8]: 43.9%
- MIC [9]: 250 µg/mL (≈ 557 µM)
- MIC [10]: 250 µg/mL (≈ 557 µM)
- inhibition [11]: Dose-dependent effect
- MIC [12]: 250 µg/mL (≈ 557 µM)
- MIC [13]: 250 µg/mL (≈ 557 µM)
- MIC [14]: 125 µg/mL (≈ 279 µM)
- MIC [15]: 500 µg/mL (≈ 1110 µM)
- MIC [16]: 250 µg/mL (≈ 557 µM)
- viability at 200 µg/mL [17]: 28.6%
- MIC [18]: 250 µg/mL (≈ 557 µM)
- MIC [19]: 250 µg/mL (≈ 557 µM)
- MIC [20]: 250 µg/mL (≈ 557 µM)
- IC50 [21]: 213 µg/mL (≈ 476 µM)
- inhibition [22]: Active
- MIC [23]: 250 µg/mL (≈ 557 µM)
- viability at 12 µg/mL [24]: 53.9%

SMILES: O=C(CSc1nnnn1-c1ccccc1)N/N=c1/scc(-c2ccccc2)n1-c1ccccc1
- MIC [1]: 250 µg/mL (≈ 515 µM)
- viability at 6 µg/mL [2]: 52.1%
- viability at 100 µg/mL [3]: 35.8%
- IC50 [4]: 8.3 µg/mL (≈ 17.1 µM)
- viability at 50 µg/mL [5]: 36.7%
- MIC [6]: 250 µg/mL (≈ 515 µM)
- MIC [7]: 250 µg/mL (≈ 515 µM)
- viability at 25 µg/mL [8]: 42.5%
- MIC [9]: 250 µg/mL (≈ 515 µM)
- MIC [10]: 250 µg/mL (≈ 515 µM)
- inhibition [11]: Dose-dependent effect
- MIC [12]: 250 µg/mL (≈ 515 µM)
- MIC [13]: 250 µg/mL (≈ 515 µM)
- MIC [14]: 125 µg/mL (≈ 257 µM)
- MIC [15]: 500 µg/mL (≈ 1030 µM)
- MIC [16]: 125 µg/mL (≈ 257 µM)
- viability at 200 µg/mL [17]: 22.6%
- MIC [18]: 250 µg/mL (≈ 515 µM)
- MIC [19]: 250 µg/mL (≈ 515 µM)
- MIC [20]: 250 µg/mL (≈ 515 µM)
- IC50 [21]: 417 µg/mL (≈ 858 µM)
- inhibition [22]: Active
- MIC [23]: 250 µg/mL (≈ 515 µM)
- viability at 12 µg/mL [24]: 47.1%

SMILES: O=C(CSc1nnnn1-c1ccccc1)N/N=c1/scc(-c2ccc(F)cc2)n1-c1ccccc1
- MIC [1]: 250 µg/mL (≈ 496 µM)
- viability at 6 µg/mL [2]: 74.9%
- viability at 100 µg/mL [3]: 35.8%
- IC50 [4]: 24.3 µg/mL (≈ 48.3 µM)
- viability at 50 µg/mL [5]: 43.7%
- MIC [6]: 250 µg/mL (≈ 496 µM)
- MIC [7]: 250 µg/mL (≈ 496 µM)
- viability at 25 µg/mL [8]: 49.3%
- MIC [9]: 250 µg/mL (≈ 496 µM)
- MIC [10]: 250 µg/mL (≈ 496 µM)
- inhibition [11]: Dose-dependent effect
- MIC [12]: 250 µg/mL (≈ 496 µM)
- MIC [13]: 250 µg/mL (≈ 496 µM)
- MIC [14]: 125 µg/mL (≈ 248 µM)
- MIC [15]: 500 µg/mL (≈ 993 µM)
- MIC [16]: 125 µg/mL (≈ 248 µM)
- viability at 200 µg/mL [17]: 30.6%
- MIC [18]: 250 µg/mL (≈ 496 µM)
- MIC [19]: 250 µg/mL (≈ 496 µM)
- MIC [20]: 250 µg/mL (≈ 496 µM)
- IC50 [21]: 207 µg/mL (≈ 410 µM)
- inhibition [22]: Active
- MIC [23]: 250 µg/mL (≈ 496 µM)
- viability at 12 µg/mL [24]: 60%

SMILES: COc1ccc(-c2cs/c(=N/NC(=O)CSc3nnc(C)s3)n2-c2ccccc2)cc1
- MIC [1]: 250 µg/mL (≈ 532 µM)
- viability at 6 µg/mL [2]: 57.9%
- viability at 100 µg/mL [3]: 25.9%
- IC50 [4]: 18.7 µg/mL (≈ 39.8 µM)
- viability at 50 µg/mL [5]: 31.5%
- MIC [6]: 250 µg/mL (≈ 532 µM)
- MIC [7]: 250 µg/mL (≈ 532 µM)
- viability at 25 µg/mL [8]: 42.6%
- MIC [9]: 250 µg/mL (≈ 532 µM)
- MIC [10]: 250 µg/mL (≈ 532 µM)
- inhibition [11]: Dose-dependent effect
- MIC [12]: 250 µg/mL (≈ 532 µM)
- MIC [13]: 250 µg/mL (≈ 532 µM)
- MIC [14]: 125 µg/mL (≈ 266 µM)
- MIC [15]: 250 µg/mL (≈ 532 µM)
- MIC [16]: 250 µg/mL (≈ 532 µM)
- viability at 200 µg/mL [17]: 22.2%
- MIC [18]: 250 µg/mL (≈ 532 µM)
- MIC [19]: 250 µg/mL (≈ 532 µM)
- MIC [20]: 250 µg/mL (≈ 532 µM)
- IC50 [21]: 300 µg/mL (≈ 639 µM)
- inhibition [22]: Active
- MIC [23]: 250 µg/mL (≈ 532 µM)
- viability at 12 µg/mL [24]: 53.6%

SMILES: O=C(CSc1nnnn1-c1ccccc1)N/N=c1/scc(-c2ccc(Cl)cc2)n1-c1ccccc1
- MIC [1]: 125 µg/mL (≈ 240 µM)
- viability at 6 µg/mL [2]: 77.4%
- viability at 100 µg/mL [3]: 54.3%
- IC50 [4]: > 200 µg/mL
- viability at 50 µg/mL [5]: 60%
- MIC [6]: 250 µg/mL (≈ 481 µM)
- MIC [7]: 250 µg/mL (≈ 481 µM)
- viability at 25 µg/mL [8]: 62.3%
- MIC [9]: 125 µg/mL (≈ 240 µM)
- MIC [10]: 250 µg/mL (≈ 481 µM)
- MIC [12]: 250 µg/mL (≈ 481 µM)
- MIC [13]: 250 µg/mL (≈ 481 µM)
- MIC [14]: 125 µg/mL (≈ 240 µM)
- MIC [15]: 250 µg/mL (≈ 481 µM)
- MIC [16]: 250 µg/mL (≈ 481 µM)
- viability at 200 µg/mL [17]: 52.4%
- MIC [18]: 250 µg/mL (≈ 481 µM)
- MIC [19]: 125 µg/mL (≈ 240 µM)
- MIC [20]: 250 µg/mL (≈ 481 µM)
- IC50 [21]: 313 µg/mL (≈ 602 µM)
- MIC [23]: 250 µg/mL (≈ 481 µM)
- viability at 12 µg/mL [24]: 69.3%
